Tests used:
[1] = tested on: Ca9-22 (human oral squamous cell carcinoma, gingiva); test: Cytotoxicity assay (MTT), Ca9-22 cells; format: cell-based; settings: for TS (C/A): CC50 HGF / CC50 Ca9-22; for times of potency versus 5-FU toward Ca9-22: CC50 ratio to reference 5-FU; for CC50: Homo sapiens, Ca9-22, 48 h, MTT, triplicate wells; for SI Ca9-22: average CC50 of nonmalignant cells / CC50 toward Ca9-22
Description: (§1) The cytotoxicity of the compounds were assayed toward human oral squamous cell carcinoma cell lines derived from gingiva tissue (CA9–22) and tongue (HSC-2, HSC-3, HSC-4), and human normal oral cells (gingival fibroblasts, HGF; periodontal ligament fibroblasts, HPLF; pulp cells, HPC) with some minor modifications[16]^,[17]^,[26]^,[30–33]. In brief, cells were cultured in DMEM supplemented with 10% fetal bovine serum (FBS). Cells (2.5 × 10^3 cells/well) were inoculated and incubated for 48 h to achieve complete adherence. Near confluent cells were incubated for a further 48 h in the fresh culture medium containing each test compound (3.12, 6.25, 12.5, 25, 50, 100, 200, 400 μM) or 5-FU (positive control) (7.8, 15.6, 31.2, 62.5, 125, 250, 500, 1000 μM). The viable cell numbers were determined by the MTT method. Cytotoxicity induced by DMSO (0.0078, 0.0156, 0.03125, 0.0625, 0.125, 0.25, 0.5 or 1%) was subtracted from each well. The CC50 values were determined from the dose-response curves. The tumor selectivity (TS) was calculated by the following equation: TS = mean CC50 against normal cells/mean CC50 against cancer cells [shown as (D/B) or (C/A) in Table 1]. A potency selectivity expression (PSE) was calculated by multiplying the reciprocal of average CC50 values toward cancer cell lines and the average SI values toward these cell lines and expressed as a percentage [PSE = (D/B^2) × 100].

[2] = tested on: HSC-3 (human oral squamous cell carcinoma, tongue); test: Cytotoxicity assay (MTT), HSC-3 cells; format: cell-based; settings: for CC50: Homo sapiens, HSC-3, 48 h, MTT; for SI HSC-3: average CC50 of nonmalignant cells / CC50 toward HSC-3
Description: as §1

[3] = Cytotoxicity assay (MTT), mean over three normal oral cells; format: cell-based; settings: human; mean of HGF, HPLF, HPC; read-out: (D) Mean CC50, human normal oral cells
Description: as §1

[4] = tested on: Human oral squamous cell carcinoma cells; test: Cytotoxicity assay (MTT), mean over four OSCC cell lines; format: cell-based; settings: for CC50: Homo sapiens, mean of Ca9-22, HSC-2, HSC-3, HSC-4, read-out: (B) Mean CC50, human oral squamous cell carcinoma cells; for TS (D/B): mean CC50 normal cells / mean CC50 OSCC cells; for PSE (D/B^2) × 100: potency selectivity expression, expressed as a percentage
Description: as §1

[5] = Cytotoxicity assay (MTT), HGF cells; format: cell-based; settings: human, gingival fibroblasts (HGF), normal oral cells
Description: as §1

[6] = tested on: HSC-2 (human oral squamous cell carcinoma, tongue); test: Cytotoxicity assay (MTT), HSC-2 cells; format: cell-based; settings: for CC50: Homo sapiens, HSC-2, 48 h, MTT; for SI HSC-2: average CC50 of nonmalignant cells / CC50 toward HSC-2; for times of potency versus 5-FU toward HSC-2: CC50 ratio to reference 5-FU
Description: as §1

[7] = tested on: HSC-4 (human oral squamous cell carcinoma, tongue); test: Cytotoxicity assay (MTT), HSC-4 cells; format: cell-based; settings: for CC50: Homo sapiens, HSC-4, 48 h, MTT; for SI HSC-4: average CC50 of nonmalignant cells / CC50 toward HSC-4
Description: as §1

[8] = Cytotoxicity assay (MTT), HPC cells; format: cell-based; settings: human, pulp cells (HPC), normal oral cells
Description: as §1

[9] = Cytotoxicity assay (MTT), HPLF cells; format: cell-based; settings: human, periodontal ligament fibroblasts (HPLF), normal oral cells
Description: as §1

[10] = molecular target: hCA I (Homo sapiens, UniProt P00915); test: Carbonic anhydrase inhibition assay (esterase activity, 348 nm), hCA I; format: biochemical; settings: for Ki: Lineweaver-Burk, three concentrations; for IC50: from activity (%) versus compound plots; for times more potent than AZA toward hCA I: in terms of IC50 values
[11] = molecular target: hCA II (Homo sapiens, UniProt P00918); test: Carbonic anhydrase inhibition assay (esterase activity, 348 nm), hCA II; format: biochemical; settings: for Ki: Lineweaver-Burk, three concentrations; for IC50: from activity (%) versus compound plots; for times more potent than AZA toward hCA II: in terms of IC50 values

hCA I, sequence (P00915 whole entry): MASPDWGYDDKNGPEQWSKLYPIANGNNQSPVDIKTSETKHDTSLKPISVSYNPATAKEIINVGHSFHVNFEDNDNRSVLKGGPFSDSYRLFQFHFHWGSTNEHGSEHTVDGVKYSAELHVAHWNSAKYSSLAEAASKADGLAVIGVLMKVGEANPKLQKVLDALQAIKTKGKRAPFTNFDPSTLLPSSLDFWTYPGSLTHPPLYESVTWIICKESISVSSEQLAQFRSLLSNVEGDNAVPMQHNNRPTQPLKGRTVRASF

Structure (SMILES) | TS (C/A) [1] | times of potency versus 5-FU toward Ca9-22 [1] | CC50 [1] | SI Ca9-22 [1] | CC50 [2] | SI HSC-3 [2] | CC50 at 48 h [3] | CC50 [4] | TS (D/B) [4] | PSE (D/B^2) × 100 [4] | CC50 at 48 h [5] | CC50 [6] | SI HSC-2 [6] | CC50 [7] | SI HSC-4 [7] | CC50 at 48 h [8] | CC50 at 48 h [9] | Ki [10] | IC50 [10] | times more potent than AZA toward hCA I [10] | further results
COc1ccc(C2=NN(c3ccc(S(N)(=O)=O)cc3)C(c3ccc(O)cc3)C2)cc1 (stereo not drawn) [Compound 10, 4-[5-(4-Hydroxyphenyl)-3-(4-methoxyphenyl)-4,5-dihydro-1H-pyrazol-1-yl] benzenesulfonamide] | 1.3 | 2.7 | 37.7 µM | 1.3 | 47 µM | 1.1 | 50.8 µM | 47.7 µM | 1.1 | 2.2 | 47.3 µM | 65.3 µM | 0.8 | 40.7 µM | 1.2 | 61 µM | 44 µM | 0.00399 ± 0.0009 µM | 0.00484 µM | 39.3 | Ki [11]: 0.00507 ± 0.00169 µM; IC50 [11]: 0.00537 µM; times more potent than AZA toward hCA II [11]: 37.1
NS(=O)(=O)c1ccc(N2N=C(c3cccs3)CC2c2ccc(O)cc2)cc1 (stereo not drawn) [Compound 14, 4-[5–(4-Hydroxyphenyl)-3-(thiophen-2-yl)-4,5-dihydro-1H-pyrazol-1-yl] benzenesulfonamide] | 1.9 | 2.2 | 45.7 µM | 1.8 | 61.3 µM | 1.4 | 82.9 µM | 54.3 µM | 1.5 | 2.8 | 88.3 µM | 55 µM | 1.5 | 55.3 µM | 1.5 | 87.3 µM | 73 µM | 0.00417 ± 0.00093 µM | 0.00513 µM | 37.1 | Ki [11]: 0.00385 ± 0.00057 µM; IC50 [11]: 0.00545 µM; times more potent than AZA toward hCA II [11]: 36.6
NS(=O)(=O)c1ccc(N2N=C(c3ccc(Cl)cc3)CC2c2ccc(O)cc2)cc1 (stereo not drawn) [Compound 12, 4-[5-(4-Hydroxyphenyl)-3-(4-chlorophenyl)-4,5-dihydro-1H-pyrazol-1-yl] benzenesulfonamide] | 2.0 | 4.5 | 22.3 µM | 2.0 | 38.3 µM | 1.2 | 44.3 µM | 32.8 µM | 1.4 | 4.1 | 44 µM | 39 µM | 1.1 | 31.3 µM | 1.4 | 50.7 µM | 38.3 µM | 0.00449 ± 0.00067 µM | 0.00491 µM | 38.7 | times of potency versus 5-FU toward HSC-2 [6]: 1.2; Ki [11]: 0.00406 ± 0.0006 µM; IC50 [11]: 0.00425 µM; times more potent than AZA toward hCA II [11]: 46.9
NS(=O)(=O)c1ccc(N2N=C(c3ccc(F)cc3)CC2c2ccc(O)cc2)cc1 (stereo not drawn) [Compound 11, 4-[5-(4-Hydroxyphenyl)-3-(4-fluorophenyl)-4,5-dihydro-1H-pyrazol-1-yl] benzenesulfonamide] | 1.8 | 2.8 | 36.3 µM | 1.6 | 43.3 µM | 1.4 | 59.1 µM | 41.3 µM | 1.4 | 3.5 | 66.7 µM | 46.3 µM | 1.3 | 39.3 µM | 1.5 | 67.7 µM | 43 µM | 0.0051 ± 0.00117 µM | 0.00568 µM | 33.5 | times of potency versus 5-FU toward HSC-2 [6]: 1.0; Ki [11]: 0.00453 ± 0.00075 µM; IC50 [11]: 0.00572 µM; times more potent than AZA toward hCA II [11]: 34.9
O=c1[nH]cc(F)c(=O)[nH]1 [Compound 5-FU, 5-Fluorouracil, reference compound] | >10.0 | – | 100 µM | >167.3 | 27.3 µM | >71.5 | > 736 µM | 47.6 µM | >15.5 | >32.6 | > 1000 µM | 45.7 µM | >16.1 | 17.3 µM | – | > 1000 µM | 208 µM | – | – | – | –
Cc1ccc(C2=NN(c3ccc(S(N)(=O)=O)cc3)C(c3ccc(O)cc3)C2)cc1 (stereo not drawn) [Compound 9, 4-[5-(4-Hydroxyphenyl)-3-(4-methylphenyl)-4,5-dihydro-1H-pyrazol-1-yl]benzene sulfonamide] | 1.7 | 3.9 | 25.7 µM | 1.7 | 39.7 µM | 1.1 | 44.2 µM | 32.6 µM | 1.4 | 4.2 | 43.7 µM | 33.3 µM | 1.3 | 31.7 µM | 1.4 | 49.7 µM | 39.3 µM | 0.00459 ± 0.00125 µM | 0.00529 µM | 35.9 | times of potency versus 5-FU toward HSC-2 [6]: 1.4; Ki [11]: 0.00748 ± 0.00252 µM; IC50 [11]: 0.00563 µM; times more potent than AZA toward hCA II [11]: 35.5
NS(=O)(=O)c1ccc(N2N=C(c3ccc(Br)cc3)CC2c2ccc(O)cc2)cc1 (stereo not drawn) [Compound 13, 4-[5-(4-Hydroxyphenyl)-3-(4-bromophenyl)-4,5-dihydro-1H-pyrazol-1-yl] benzenesulfonamide] | 1.7 | 4.8 | 20.7 µM | 1.7 | 34.7 µM | 1.0 | 34.7 µM | 29.7 µM | 1.2 | 3.9 | 34.7 µM | 37.7 µM | 0.9 | 25.7 µM | 1.4 | 39.7 µM | 29.7 µM | 0.00373 ± 0.00091 µM | 0.00422 µM | 45.1 | times of potency versus 5-FU toward HSC-2 [6]: 1.2; Ki [11]: 0.00456 ± 0.00108 µM; IC50 [11]: 0.00465 µM; times more potent than AZA toward hCA II [11]: 42.9
NS(=O)(=O)c1ccc(N2N=C(c3ccccc3)CC2c2ccc(O)cc2)cc1 (stereo not drawn) [Compound 8, 4-[5-(4-Hydroxyphenyl)-3-phenyl-4,5-dihydro-1H-pyrazol-1-yl]benzenesulfonamide] | 2.0 | 2.4 | 42 µM | 1.8 | 66.3 µM | 1.1 | 75.9 µM | 56.4 µM | 1.3 | 2.3 | 85 µM | 67 µM | 1.1 | 50.3 µM | 1.5 | 88.3 µM | 54.3 µM | 0.00484 ± 0.00078 µM | 0.00481 µM | 39.5 | Ki [11]: 0.00459 ± 0.00083 µM; IC50 [11]: 0.00495 µM; times more potent than AZA toward hCA II [11]: 40.3

— article PMC6009867, “Microwave-assisted synthesis and bioevaluation of new sulfonamides” (Journal of Enzyme Inhibition and Medicinal Chemistry, 2017)
